Experimental findings from US12583858B2 (Genentech, Inc., priority 2015, dated 2026) are described below.

T1 sequence (P48775 whole entry): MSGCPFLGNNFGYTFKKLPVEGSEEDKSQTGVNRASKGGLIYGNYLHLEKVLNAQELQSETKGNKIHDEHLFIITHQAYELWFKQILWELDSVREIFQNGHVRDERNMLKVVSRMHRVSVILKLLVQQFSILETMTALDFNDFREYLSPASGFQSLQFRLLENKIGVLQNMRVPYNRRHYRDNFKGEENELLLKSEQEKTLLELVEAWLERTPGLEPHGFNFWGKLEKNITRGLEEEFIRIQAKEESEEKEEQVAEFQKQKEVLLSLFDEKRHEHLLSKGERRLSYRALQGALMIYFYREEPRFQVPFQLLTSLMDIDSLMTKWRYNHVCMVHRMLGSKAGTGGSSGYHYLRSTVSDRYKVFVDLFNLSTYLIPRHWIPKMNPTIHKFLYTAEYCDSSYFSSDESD

The assay addresses T1, TDO2 (Homo sapiens, UniProt P48775).
T1 construct: decreased levels of NFK in SW48 cells (high TDO expressing cells)
Nature of the assay: TDO2 cell assay (NFK GreenScreen, SW48 cells). In kind it is cell-based. The conditions noted are these: SW48 cells (high TDO expressing), 200 uM tryptophan, 24 hours; Table 3; read-out: TDO2 Cell Fluor EC50.
Turning to `O[C@H]1COCC[C@@H]1[C@@H]1c2c(F)cccc2-c2cncn21` [Example 120b, (3R,4R)-4-((R)-6-fluoro-5H-imidazo[5,1-a]isoindol-5-yl)tetrahydro-2H-pyran-3-ol], the EC50 is above 25 µM.

With `OC1COCCC1C1c2c(Cl)cccc2-c2cncn21` (single isomer, unassigned) [Example 69-1d], the concentration giving a half-maximal response (EC50) was 4.6 µM.

As for `O[C@H]1CCC(F)(F)C[C@H]1[C@@H]1c2ccccc2-c2cncn21` (single isomer, unassigned) [Example 18f], the EC50 was found to be 15 µM.

With `OC(C1CC1)C1c2ccccc2-c2cncn21` (single isomer, unassigned) [Example 52a], the concentration giving a half-maximal response (EC50) came out at 0.24 µM.

As to `OC1C(C2c3ccccc3-c3cncn32)CCC12CCOCC2` (single isomer, unassigned) [Example 68g], the 50% effective concentration (EC50) was above 25 µM.

As to `OC1COCCC1C1c2ccc(F)cc2-c2cncn21` (single isomer, unassigned) [Example 33a], the EC50 was above 25 µM.

Consider `OC1c2ccccc2CCC1C1c2ccccc2-c2cncn21` (single isomer, unassigned) [Example 102b], for which the EC50 came out at 19 µM.

As for `N#Cc1cnc2c(c1)CC[C@H]([C@@H]1c3ccccc3-c3cncn31)[C@H]2O` (single isomer, unassigned) [Example 107h], the EC50 was found to be 0.16 µM.

On to `OC1c2ccccc2CC1C1c2ccccc2-c2cncn21` (single isomer, unassigned) [Example 19f], for which the EC50 stood at 4.4 µM.

`Cc1nc2c(o1)CCC(C1c3ccccc3-c3cncn31)C2O` (single isomer, unassigned) [Example 178b]: the concentration giving a half-maximal response (EC50) was above 25 µM.

Regarding `O[C@@H]1CCC(F)(F)C[C@@H]1[C@H]1c2ccccc2-c2cncn21` (single isomer, unassigned) [Example 18b], the EC50 came to 0.062 µM.

In the case of `N#Cc1ccc2c(c1)CCC(C1c3ccccc3-c3cncn31)C2O` (single isomer, unassigned) [Example 62f], the 50% effective concentration (EC50) stood at 2.5 µM.

Regarding `OC1CC2(CC2)C1C1c2ccccc2-c2cncn21` (single isomer, unassigned) [Example 72e], the EC50 came to 0.052 µM.

For the compound `OC1c2cncn2CCC1C1c2ccccc2-c2cncn21` (single isomer, unassigned) [Example 07a], the concentration giving a half-maximal response (EC50) was determined as 15 µM.

With `Nc1ncc2c(n1)CCC(C1c3ccccc3-c3cncn31)C2O` (single isomer, unassigned) [Example 111f], the EC50 is above 25 µM.

On to `NC(=O)C1(C(O)C2c3ccccc3-c3cncn32)CC1` (single isomer, unassigned) [Example 165c], for which the concentration for a half-maximal effect (EC50) was 11 µM.

Take `O[C@@H]1COCC[C@H]1[C@@H]1c2c(F)cccc2-c2cncn21` (single isomer, unassigned) [Example 120c]: the EC50 was 14 µM.

`OC1c2nonc2CCC1C1c2ccccc2-c2cncn21` (single isomer, unassigned) [Example 163b]: the concentration for a half-maximal effect (EC50) came to 0.06 µM.

Regarding `OC1c2cncn2CC[C@@H]1[C@@H]1c2ccccc2-c2cncn21` (stereo in doubt) [Example 07d, (7R,8S)-7-((R)-5H-imidazo[5,1-a]isoindol-5-yl)-5,6,7,8-tetrahydroimidazo[1,5-a]pyridin-8-ol], the EC50 was above 25 µM.

Turning to `CC(=O)N1CCC(C2c3ccccc3-c3cncn32)C(O)C1` (single isomer, unassigned) [Example 09a, 1-(3-hydroxy-4-(5H-imidazo[5,1-a]isoindol-5-yl)piperidin-1-yl)ethan-1-one], the concentration giving a half-maximal response (EC50) was above 25 µM.

Consider `O=c1cccc2n1CCC(C1c3ccccc3-c3cncn31)C2O` (single isomer, unassigned) [Example 29b, 1-hydroxy-2-(5H-imidazo[5,1-a]isoindol-5-yl)-3,4-dihydro-1H-quinolizin-6(2H)-one], for which the EC50 came out at 0.67 µM.

Take `CC1(C)CCC(C2c3ccccc3-c3cncn32)C1O` (single isomer, unassigned) [Example 23e]: the EC50 was 17 µM.

On to `N#CC1CCC(O)(C2c3ccccc3-c3cncn32)CC1` (single isomer, unassigned) [Example 145c], for which the EC50 came out at 19 µM.

With `NC(=O)c1ccc2c(c1)C(O)C(C1c3ccccc3-c3cncn31)CC2` (single isomer, unassigned) [Example 122f], the EC50 is 0.91 µM.

For `CC1(C)CCCC(C)(C2c3ccccc3-c3cncn32)C1O` (single isomer, unassigned) [Example 90a], the EC50 was above 25 µM.

As for `Cc1cc2c(cn1)C(O)C(C1c3ccccc3-c3cncn31)C2` (single isomer, unassigned) [Example 59c], the 50% effective concentration (EC50) worked out at 1.6 µM.

With `O[C@@H]1CN(C2COC2)CC[C@H]1[C@H]1c2ccccc2-c2cncn21` [Example 103, (3S,4S)-4-((S)-5H-imidazo[5,1-a]isoindol-5-yl)-1-(oxetan-3-yl)piperidin-3-ol], the EC50 turned out to be 12 µM.

As for `OC1c2cnccc2CC1C1c2ccccc2-c2cncn21` (single isomer, unassigned) [Example 71e], the EC50 is 11 µM.

For `OCC(O)C1c2ccccc2-c2cncn21` (single isomer, unassigned) [Example 49d, 1-(5H-imidazo[5,1-a]isoindol-5-yl)ethane-1,2-diol], the EC50 was 1.44 µM.

Consider `O[C@@H]1c2ccnn2CC[C@@H]1[C@@H]1c2ccccc2-c2cncn21` [Example 56c, (4S,5R)-5-((R)-5H-imidazo[5,1-a]isoindol-5-yl)-4,5,6,7-tetrahydropyrazolo[1,5-a]pyridin-4-ol], for which the half-maximal effective concentration (EC50) is above 25 µM.

With `CC(C)(C(N)=O)C(O)C1c2ccccc2-c2cncn21` (single isomer, unassigned) [Example 155d], the EC50 was above 25 µM.

Turning to `OC(c1ccncc1)C1c2ccccc2-c2cncn21` (single isomer, unassigned) [Example 152c], the EC50 was above 25 µM.

Take `CS(=O)(=O)N1CCC2(CC1)CC(C1c3ccccc3-c3cncn31)C2O` (single isomer, unassigned) [Example 179f]: the EC50 is 0.12 µM.

As to `CN(C)C(=O)c1ccc2c(c1)CCC(C1c3ccccc3-c3cncn31)C2O` (single isomer, unassigned) [Example 98a], the EC50 was found to be 0.073 µM.

Consider `OC1c2ccccc2CC1C1c2ccccc2-c2cncn21` (single isomer, unassigned) [Example 19a], for which the EC50 came out at 7.4 µM.

In the case of `OC1COCC1C1c2ccc(F)cc2-c2cncn21` (single isomer, unassigned) [Example 30a], the EC50 is 0.26 µM.

Take `OC1c2cncnc2CCC1C1c2ccccc2-c2cncn21` (single isomer, unassigned) [Example 94e]: the EC50 was 2 µM.

With `CC(C)(C)OC(=O)N1CCC(C2c3ccccc3-c3cncn32)C(O)C1` (single isomer, unassigned) [Example 10d, tert-butyl 3-hydroxy-4-(5H-imidazo[5,1-a]isoindol-5-yl)piperidine-1-carboxylate], the EC50 is above 25 µM.

For the compound `CC1(C)CCCCC1(O)C1c2ccccc2-c2cncn21` (single isomer, unassigned) [Example 164b], the EC50 was 7.5 µM.

As for `OC(C1CC1)C1c2ccccc2-c2cncn21` (single isomer, unassigned) [Example 52d], the EC50 came out at 2 µM.

For `CCS(=O)(=O)N1CC(O)(CC2c3ccccc3-c3cncn32)C1` (single isomer, unassigned) [Example 108a], the EC50 was determined as 2.8 µM.
